{"source": "paper PMC6125496", "about": "(Antimicrobial Agents and Chemotherapy, 2018)", "key": {"in vivo": {"assay": "in vivo", "conditions": "female, plasma, iv", "method": "Pharmacokinetic analyses were performed by Pharmacelsus (Saarbrücken, Germany). […] Blood (100 μl) was collected from three animals per time point (5, 10, 20, 30, 60, and 120 min postdose for mice and 5, 15, 30, 60, 180, and 420 min postdose for rats) in tubes containing K3-EDTA as an anticoagulant. Samples were stored on ice and centrifuged at 6,000 rpm for 10 min at 4°C. A sample volume of 50 μl was mixed with 5 μl of solvent (acetonitrile-H2O-DMSO, [5/4/1, vol/vol/vol] plus 1% formic acid). A volume of 10 μl of solvent containing the internal standard and 50 μl of precipitant (10% TCA) were added to 55 μl of sample. The mixture was vortexed and centrifuged at 6,000 × g (room temperature) for 10 min. The protein-free supernatant was analyzed by LC-MS using an Ultimate 3000RS ultrahigh-performance liquid chromatograph (U-HPLC) coupled with an Orbitrap Q Exactive mass spectrometer.\nAnalytes were separated on a Accurore phenyl-hexyl analytical column (2.1 by 50 mm, 2.6 μm; Thermo, Germany) using a linear gradient of mobile phase A (acetonitrile-0.2% heptafluorobutyric acid)-mobile phase B (water-0.2% heptafluorobutyric acid), starting from 5% mobile phase A to 97% in 2.2 min, and a flow rate of […]. Peaks were analyzed by mass spectrometry (ESI ionization in MRM mode) using Xcalibur 4.0 software. The products analyzed, [M + 2H]^2+ and [M + 3H]^3+, were 539.8 and 360.2 Da, respectively. PK parameters were calculated using a noncompartmental analysis model and Kinetica 5.0 software (Thermo Scientific, Waltham, MA). The mean plasma concentrations from all three mice at each time point were used in the calculation."}, "in vitro": {"assay": "in vitro", "conditions": "liver microsomes, pH 7.4", "method": "The microsome metabolic stability assays were performed by Cyprotex Discovery Ltd. (Macclesfield, UK). Pooled microsomes from different species (mouse, rat, dog, monkey, and human) were stored at −80°C prior to use. […] The final incubation volume was 500 μl. A minus cofactor control incubation was included for each compound tested, in which 0.1 M phosphate buffer (pH 7.4) was added instead of NADPH (minus NADPH). Two control compounds were included with each species. Each compound was incubated for 0, 5, 15, 30, and 45 min. The control (minus NADPH) was incubated for 45 min only. The reactions were stopped by transferring an aliquot of the mixture to 40% TCA in water containing an internal standard (NOSO-95216, 1 μM final concentration) for the test compounds, or methanol for the control compounds, at the desired time points. The termination plates were centrifuged at 2,500 rpm for 20 min at 4°C to precipitate the protein. Following protein precipitation, the test compound sample supernatants were diluted with analytical-grade water, whereas the control compounds were diluted with an internal standard (metoprolol) in water. The test compound samples were analyzed by LC-MS/MS."}, "[1]": {"test_system": "Escherichia coli, colistin-resistant (25)", "from_the_text": "(§1) Reference strains are from the German Collection of Microorganisms and Cell Cultures (DSMZ), the American Type Culture Collection (ATCC), the National Collection of Type Cultures (NCTC), and the Medical and Molecular Microbiology, Faculty of Science and Medicine, University of Fribourg, Switzerland."}, "[2]": {"test_system": "Klebsiella pneumoniae, colistin resistant (46)", "from_the_text": "as §1"}, "[3]": {"test_system": "Klebsiella pneumoniae ATCC BAA-2146", "conditions": "Ambler class B carbapenemase; NDM-1 + CTX-M15 + TEM-1 + CMY-6 + OXA-1 + SHV-1", "from_the_text": "as §1"}, "[4]": {"test_system": "Enterobacter cloacae KBM15", "conditions": "Ambler class A carbapenemase; KPC-2 + TEM-1 + OXA-9", "from_the_text": "as §1"}, "Escherichia coli COL": {"test_system": "Escherichia coli COL", "conditions": "Ambler class A carbapenemase; KPC-2 + TEM-1 + CTX-M9", "from_the_text": "as §1"}, "[5]": {"test_system": "Klebsiella pneumoniae LAM", "conditions": "Ambler class B carbapenemase; NDM-4 + SHV-11 + CTX-M15", "from_the_text": "as §1"}, "Escherichia coli DOV": {"test_system": "Escherichia coli DOV", "conditions": "Ambler class D carbapenemase; OXA-48 + TEM-1 + CTX-M15 + OXA-1", "from_the_text": "as §1"}, "Escherichia coli GAL": {"test_system": "Escherichia coli GAL", "conditions": "Ambler class B carbapenemase; NDM-6 + OXA-1 + CTX-M15", "from_the_text": "as §1"}, "[6]": {"test_system": "Klebsiella pneumoniae A33504", "conditions": "Ambler class A carbapenemase; KPC-2+ SHV-11 + TEM-1 + CTX-M-2 + OXA-9", "from_the_text": "as §1"}, "Escherichia coli PSP": {"test_system": "Escherichia coli PSP", "conditions": "Ambler class A carbapenemase; KPC-2 + TEM-1 + OXA-1", "from_the_text": "as §1"}, "[7]": {"test_system": "Enterobacter cloacae 3047", "conditions": "Ambler class B carbapenemase; NDM-1 + CTX-M15 + TEM-1 + OXA-1", "from_the_text": "as §1"}, "Escherichia coli EGB957": {"test_system": "Escherichia coli EGB957", "conditions": "Ambler class B carbapenemase; VIM-1 + OXA-48 + TEM-1 + CMY-4 + OXA-1", "from_the_text": "as §1"}}, "note": "Like-named read-outs stand apart in the source and are kept apart here. Non-standard residues stand in square brackets, D forms with d. Residues, ends and D or L forms follow the SMILES beside them. Dab(3S-OH) = NC[C@H](O)[C@H](N)C(=O)O; Phe(2-F) = N[C@@H](Cc1ccccc1F)C(=O)O; ΔZArg = N=C(N)NCC/C=C(\\N)C(=O)O; dOrn = NCCC[C@@H](N)C(=O)O; Dab = NCC[C@H](N)C(=O)O", "data": [{"compound": "N=C(N)NCC/C=C(\\NC(=O)[C@H](CCCCN)NC(=O)[C@H](Cc1ccccc1F)NC(=O)[C@@H]1CCCN1C(=O)[C@@H](CCCN)NC(=O)CNC(=O)[C@H](CCN)NC(=O)[C@@H](NC(=O)[C@@H](N)CCCCN)[C@@H](O)CN)C(=O)O", "note": "[NOSO-502] (H-K[Dab(3S-OH)][Dab]G[dOrn]P[Phe(2-F)]K[ΔZArg]-OH)", "values": [{"measurement": "AUC(0-t)", "setting": "in vivo; CD-1, mouse, 30 mg/kg", "result": 8880, "unit": "ng·h/mL"}, {"measurement": "Cmax", "setting": "in vivo; CD-1, mouse, 30 mg/kg", "result": 23500, "unit": "ng/mL"}, {"measurement": "Vd", "setting": "in vivo; CD-1, mouse, 30 mg/kg", "result": 0.66, "unit": "L/kg"}, {"measurement": "clearance", "setting": "in vivo; CD-1, mouse, 30 mg/kg", "result": 18.8, "unit": "mL/min/kg"}, {"measurement": "half-life", "setting": "in vivo; CD-1, mouse, 30 mg/kg", "result": 0.417, "unit": "h"}, {"measurement": "AUC(0-t)", "setting": "in vivo; Sprague-Dawley, rat, 15 mg/kg", "result": 7990, "unit": "ng·h/mL"}, {"measurement": "Cmax", "setting": "in vivo; Sprague-Dawley, rat, 15 mg/kg", "result": 40700, "unit": "ng/mL"}, {"measurement": "Vd", "setting": "in vivo; Sprague-Dawley, rat, 15 mg/kg", "result": 0.94, "unit": "L/kg"}, {"measurement": "clearance", "setting": "in vivo; Sprague-Dawley, rat, 15 mg/kg", "result": 32, "unit": "mL/min/kg"}, {"measurement": "half-life", "setting": "in vivo; Sprague-Dawley, rat, 15 mg/kg", "result": 1.5, "unit": "h"}, {"measurement": "half-life at 1 μM", "setting": "in vitro; dog", "result": 1.68, "unit": "h"}, {"measurement": "half-life at 1 μM", "setting": "in vitro; human", "result": 2.42, "unit": "h"}, {"measurement": "half-life at 1 μM", "setting": "in vitro; monkey", "result": 2.45, "unit": "h"}, {"measurement": "half-life at 1 μM", "setting": "in vitro; mouse", "result": 1.93, "unit": "h"}, {"measurement": "half-life at 1 μM", "setting": "in vitro; rat", "result": 2.15, "unit": "h"}, {"measurement": "MIC range", "setting": "[1]; Unknown mechanism (2 isolates)", "result": "1 to 2", "unit": "µg/mL"}, {"measurement": "MIC range", "setting": "[1]; mcr-1 (21 isolates)", "result": "1 to 4", "unit": "µg/mL"}, {"measurement": "MIC range", "setting": "[1]; mcr-2 (1 isolate)", "result": 1, "unit": "µg/mL"}, {"measurement": "MIC range", "setting": "[1]; mcr-3 (1 isolate)", "result": 1, "unit": "µg/mL"}, {"measurement": "MIC range", "setting": "[2]; Unknown mechanism (1)", "result": 0.5, "unit": "µg/mL"}, {"measurement": "MIC range", "setting": "[2]; crrB F84S substitution (1)", "result": 8, "unit": "µg/mL"}, {"measurement": "MIC range", "setting": "[2]; crrB G183V substitution (1)", "result": 64, "unit": "µg/mL"}, {"measurement": "MIC range", "setting": "[2]; crrB N141Y substitution (1)", "result": 16, "unit": "µg/mL"}, {"measurement": "MIC range", "setting": "[2]; crrB P151L substitution (1)", "result": 128, "unit": "µg/mL"}, {"measurement": "MIC range", "setting": "[2]; mcr-1 (1)", "result": 0.5, "unit": "µg/mL"}, {"measurement": "MIC range", "setting": "[2]; mgrB IS1R between +44 and +45 (2)", "result": 1, "unit": "µg/mL"}, {"measurement": "MIC range", "setting": "[2]; mgrB IS1R into promoter between −45 and −46 (3)", "result": "0.5 to 1", "unit": "µg/mL"}, {"measurement": "MIC range", "setting": "[2]; mgrB IS5 between +74 and +75 (4)", "result": "0.5 to 2", "unit": "µg/mL"}, {"measurement": "MIC range", "setting": "[2]; mgrB IS903B between +69 and +70 (2)", "result": "0.25 to 1", "unit": "µg/mL"}, {"measurement": "MIC range", "setting": "[2]; mgrB ISKpn14 into promoter between −28 and −29 (2)", "result": "0.5 to 2", "unit": "µg/mL"}, {"measurement": "MIC range", "setting": "[2]; mgrB ISKpn26-like between +74 and +75 (2)", "result": 1, "unit": "µg/mL"}, {"measurement": "MIC range", "setting": "[2]; mgrB M27K substitution (1)", "result": 2, "unit": "µg/mL"}, {"measurement": "MIC range", "setting": "[2]; mgrB N42Y and K43I substitutions (1)", "result": 2, "unit": "µg/mL"}, {"measurement": "MIC range", "setting": "[2]; mgrB W20R substitution (1)", "result": 0.5, "unit": "µg/mL"}, {"measurement": "MIC range", "setting": "[2]; mgrB W47R substitution (1)", "result": 1, "unit": "µg/mL"}, {"measurement": "MIC range", "setting": "[2]; mgrB full deletion (5)", "result": "0.5 to 1", "unit": "µg/mL"}, {"measurement": "MIC range", "setting": "[2]; mgrB premature termination (6)", "result": "0.5 to 1", "unit": "µg/mL"}, {"measurement": "MIC range", "setting": "[2]; phoQ R16C substitution (1)", "result": 2, "unit": "µg/mL"}, {"measurement": "MIC range", "setting": "[2]; pmrA G53S substitution (2)", "result": "1 to 2", "unit": "µg/mL"}, {"measurement": "MIC range", "setting": "[2]; pmrB L17Q substitution (1)", "result": 1, "unit": "µg/mL"}, {"measurement": "MIC range", "setting": "[2]; pmrB T157P substitution (6)", "result": "0.25 to 16", "unit": "µg/mL"}]}, {"compound": "polymyxin B [PMB]", "values": [{"measurement": "MIC", "setting": "[3]", "result": 1, "unit": "µg/mL"}, {"measurement": "MIC", "setting": "[4]", "result": 0.5, "unit": "µg/mL"}, {"measurement": "MIC", "setting": "Escherichia coli COL", "result": 0.5, "unit": "µg/mL"}, {"measurement": "MIC", "setting": "[5]", "result": 0.5, "unit": "µg/mL"}, {"measurement": "MIC", "setting": "Escherichia coli DOV", "result": 0.5, "unit": "µg/mL"}, {"measurement": "MIC", "setting": "Escherichia coli GAL", "result": 0.25, "unit": "µg/mL"}, {"measurement": "MIC", "setting": "[6]", "result": 0.5, "unit": "µg/mL"}, {"measurement": "MIC", "setting": "Escherichia coli PSP", "result": 0.5, "unit": "µg/mL"}, {"measurement": "MIC", "setting": "[7]", "result": 0.5, "unit": "µg/mL"}, {"measurement": "MIC", "setting": "Escherichia coli EGB957", "result": 0.5, "unit": "µg/mL"}]}]}
